Results published in the OPERA property sets (Mansouri et al. 2018).

Settings: for log10 BCF / log10 biotransformation half-life (days): fish

Row | Compound | melting point [°C] | boiling point [°C] | other results
1 | CC(=O)[C@@]1(C)CC[C@H]2[C@@H]3CCC4=CC(=O)CCC4=C3CC[C@@]21C | 106 |  | 
2 | CC(=O)C(C)Cl (centres undefined) |  | 115 | 
3 | Nc1cccc2cccc(N)c12 | 66.5 |  | ready biodegradability: not readily biodegradable; log10 BCF: 0.8; log10 biotransformation half-life (days): -0.73
4 | O=Cc1ccc(O)c(Cl)c1 | 139 |  | 
5 | CN(C)c1ccc2cc3ccc(N(C)C)cc3nc2c1 | 165 |  | 
6 | CCN(CC)C(=O)SCc1ccccc1Cl | 9 |  | log10 vapour pressure (mmHg): -4.03
7 | O=Cc1ccccc1O[C@@H]1O[C@H](CO)[C@@H](O)[C@H](O)[C@H]1O | 175 |  | 
8 | C=CCC(C(C)=O)C(C)=O |  | 199 | 
9 | CC(=O)CC(=O)O | 36.5 |  | 
10 | Cc1ccsc1 | -69 | 116 | log10 vapour pressure (mmHg): 1.35; ready biodegradability: not readily biodegradable; log10 BCF: 0.72; log10 biotransformation half-life (days): -1.27
11 | CC(C)C(NC(N)=O)NC(N)=O |  |  | ready biodegradability: readily biodegradable
12 | O=C1C(Cl)=C(Cl)C(=O)c2ccccc21 | 195 |  | log10 Koc (L/kg): 3.98; log10 vapour pressure (mmHg): -5.96; ready biodegradability: not readily biodegradable
13 | CCCCCCCCCCC=CCCCCCCCC(=O)O | 23 |  | 
14 | CCCCC(CC)COP(=O)(O)CC(CC)CCCC (centres undefined) |  |  | ready biodegradability: not readily biodegradable
15 | CCC(=O)c1ccc(N)cc1 | 140 |  | 
16 | CCCC(=O)OCCOc1ccccc1 |  | 251 | 
17 | CCCCCCCCCCCCCCCCC(CCC)c1ccccc1 (centres undefined) | 31.4 |  | 
18 | O=C(c1ccc(Cl)cc1)c1ccc(Cl)cc1 | 148 | 353 | 
19 | CCCCCCC(=O)c1ccccc1 | 16.4 | 283 | 
20 | CC(C)CC(C)C(C)C (centres undefined) | -128 | 131 | log10 biodegradation half-life (days): 0.903; log10 vapour pressure (mmHg): 1.07
21 | O=C(CN1CCN(Cc2ccc3c(c2)OCO3)CC1)N1c2ccccc2Sc2ccccc21 | 142 |  | 
22 | CC(=O)O[C@]1(C(C)=O)CC[C@H]2[C@@H]3C=C(Cl)C4=CC(=O)C=C[C@]4(C)[C@H]3CC[C@@]21C | 168 |  | 
23 | Cc1cccc([N+](=O)[O-])c1 | 15.5 | 232 | log10 Henry constant (atm·m³/mol): -5.03; log10 vapour pressure (mmHg): -0.687; ready biodegradability: not readily biodegradable; log10 BCF: 1.08; log10 biotransformation half-life (days): -0.79
24 | COc1ccc(Cc2nccc3cc(OC)c(OC)cc23)cc1OC | 148 |  | 

Row | Compound | melting point [°C] | boiling point [°C] | other results
25 | NC(=S)c1c(Cl)cccc1Cl | 152 |  | log10 Koc (L/kg): 2.26; log10 vapour pressure (mmHg): -6
26 | O=[N+]([O-])c1ccc2c(c1)oc1ccccc12 | 182 |  | 
27 | COP(=S)(OC)Oc1cc(Cl)c(Cl)cc1Cl | 41 |  | log10 vapour pressure (mmHg): -4.12; log10 BCF: 3.58; log10 biotransformation half-life (days): 0.95
28 | Nc1cc(F)c(F)c(F)c1F | 28 |  | 
29 | Oc1ccc2c(c1)CCCC2 | 57 | 276 | 
30 | CCOc1ccc(NC(=O)CC(C)O)cc1 (centres undefined) | 160 |  | 
31 | CCC(Br)C(C)Br (centres undefined) | -56 | 178 | 
32 | OCCBr |  | 150 | 
33 | C=CC=COC |  | 91.5 | 
34 | C=CCc1cc(OC)c(OC)c(OC)c1OC | 25 |  | 
35 | CC(C)(C)C(=O)C(C)(C)C | -25.2 | 152 | 
36 | Cc1ccc(O)c(O)c1 | 65 | 251 | ready biodegradability: not readily biodegradable
37 | CC(C)OC(=O)OOC(=O)OC(C)C | 10 |  | 
38 | Clc1cccc(-c2c(Cl)c(Cl)c(Cl)c(Cl)c2Cl)c1 |  |  | log10 Henry constant (atm·m³/mol): -4.7
39 | C=CCCl | -134 | 45.1 | log10 vapour pressure (mmHg): 2.57; ready biodegradability: readily biodegradable; log10 BCF: 0.7; log10 biotransformation half-life (days): -0.93
40 | CC1(C)C=CC=C(C(=O)O)C=C1 | 88.5 |  | 
41 | CC(C)(C)c1cc(CO)cc(C(C)(C)C)c1O | 140 |  | ready biodegradability: not readily biodegradable
42 | CC(=O)[O-].[K+] | 292 |  | 
43 | O=C1C(CCS(=O)c2ccccc2)C(=O)N(c2ccccc2)N1c1ccccc1 (centres undefined) | 136 |  | 
44 | CCOC(=O)/C=C(C)/C=C/CC(C)CCCC(C)C (centres undefined) |  |  | log10 vapour pressure (mmHg): -3.61
45 | C=CCOc1nc(OCC=C)nc(OCC=C)n1 | 27 |  | 
46 | Brc1ccc(-c2ccccc2)cc1 | 91.5 | 310 | log10 vapour pressure (mmHg): -2.63; ready biodegradability: readily biodegradable
47 | CC(C)(C)c1cc(CCC(=O)OCC(COC(=O)CCc2cc(C(C)(C)C)c(O)c(C(C)(C)C)c2)(COC(=O)CCc2cc(C(C)(C)C)c(O)c(C(C)(C)C)c2)COC(=O)CCc2cc(C(C)(C)C)c(O)c(C(C)(C)C)c2)cc(C(C)(C)C)c1O |  |  | ready biodegradability: not readily biodegradable
